Data as given in paper PMC11844072, “Novel 5,6-dichlorobenzimidazole derivatives as dual BRAFWT and BRAFV600E inhibitors: design, synthesis, anti-cancer activity and molecular dynamics simulations” (BMC Chemistry, 2025).

How the values were obtained:
COLO 205 = assay: NCI 60 single concentration growth inhibition; assay type: cell-based, human; details: COLO 205, Colon cancer; for GI%: 10 μM; for inhibition at 10 µM: Homo sapiens, read-out: GI%
Summary of the method: (§1)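 For the single-dose testing, a 10 µM concentration was applied for 48 h. Adherent lines were fixed with cold TCA, stained with SRB and read at 515 nm, and the result was reported as percent growth versus untreated cells.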

DU-145 = assay: NCI 60 single concentration growth inhibition; assay type: cell-based, human; details: DU-145, Prostate cancer; for GI%: 10 μM; for inhibition at 10 µM: Homo sapiens, read-out: GI%
Summary of the method: as §1

HCC-2998 = assay: NCI 60 single concentration growth inhibition; assay type: cell-based, human; details: HCC-2998, Colon cancer; for GI%: 10 μM; for inhibition at 10 µM: Homo sapiens, read-out: GI%
Summary of the method: as §1

HCT-15 = assay: NCI 60 single concentration growth inhibition; assay type: cell-based, human; details: HCT-15, Colon cancer; for GI%: 10 μM; for inhibition at 10 µM: Homo sapiens, read-out: GI%
Summary of the method: as §1

HOP-92 = assay: NCI 60 single concentration growth inhibition; assay type: cell-based, human; details: HOP-92, Non-small cell lung cancer; for GI%: 10 μM; for inhibition at 10 µM: Homo sapiens, read-out: GI%
Summary of the method: as §1

K-562 = assay: NCI 60 single concentration growth inhibition; assay type: cell-based, human; details: for GI%: K-562, Leukemia, 10 μM; for inhibition at 10 µM: Homo sapiens, K562, K-562, Leukemia, read-out: GI%
Summary of the method: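 Suspension cells such as leukaemia lines are fixed with 80% TCA added to settled cells, to 16% final, while other lines are fixed at 10% TCA. Both are then SRB-stained after 48 h of drug exposure at 37 °C.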

LOX IMVIL = assay: NCI 60 single concentration growth inhibition; assay type: cell-based, human; details: Melanoma; for GI%: 10 μM; for inhibition at 10 µM: Homo sapiens, read-out: GI%
Summary of the method: as §1

NCI-H460 = assay: NCI 60 single concentration growth inhibition; assay type: cell-based, human; details: NCI-H460, Non-small cell lung cancer; for GI%: 10 μM; for inhibition at 10 µM: Homo sapiens, read-out: GI%
Summary of the method: as §1

NCI-H522 = assay: NCI 60 single concentration growth inhibition; assay type: cell-based, human; details: NCI-H522, Non-small cell lung cancer; for GI%: 10 μM; for inhibition at 10 µM: Homo sapiens, read-out: GI%
Summary of the method: as §1

OVCAR-4 = assay: NCI 60 single concentration growth inhibition; assay type: cell-based, human; details: OVCAR-4, Ovarian cancer; for GI%: 10 μM; for inhibition at 10 µM: Homo sapiens, read-out: GI%
Summary of the method: as §1

SNB-19 = assay: NCI 60 single concentration growth inhibition; assay type: cell-based, human; details: SNB-19, CNS cancer; for GI%: 10 μM; for inhibition at 10 µM: Homo sapiens, read-out: GI%
Summary of the method: as §1

SW-620 = assay: NCI 60 single concentration growth inhibition; assay type: cell-based, human; details: SW-620, Colon cancer; for GI%: 10 μM; for inhibition at 10 µM: Homo sapiens, read-out: GI%
Summary of the method: as §1

TK-10 = assay: NCI 60 single concentration growth inhibition; assay type: cell-based, human; details: TK-10, Renal cancer; for GI%: 10 μM; for inhibition at 10 µM: Homo sapiens, read-out: GI%
Summary of the method: as §1

U251 = assay: NCI 60 single concentration growth inhibition; assay type: cell-based, human; details: for GI%: U251, CNS cancer, 10 μM; for inhibition at 10 µM: Homo sapiens, U-251, U251, CNS cancer, read-out: GI%
Summary of the method: as §1

[1] = system: NCI 60 cancer cell line panel; assay: NCI 60 single concentration growth inhibition, panel mean; assay type: cell-based; details: Homo sapiens, mean over NCI 60 panel, read-out: Mean GI%
Protocol: The synthesized dichlorobenzimidazoles 10a–p were assayed for their influence on divers cancer cell lines according to the method presented in the Additional file A.
5. Screening of cytotoxic activity against a panel of sixty human tumor cell lines
The selected compounds by NCI were evaluated for their anticancer activity in a two-stage process. First, these compounds were screened against the full NCI 60 cell lines panel at a single high dose of 10 µM. Then, the output from the single dose screen is reported as a mean graph. […]
at five different minimal concentrations.
Assay protocol. The human tumor cell lines of the cancer screening panel are grown in RPMI 1640 medium containing 5% fetal bovine serum and 2 mM L-glutamine. For a typical screening experiment, cells are inoculated into 96 well microtiter plates in 100 µL at plating densities ranging from 5000 to 40,000 cells/well depending on the doubling time of individual cell lines. After cell inoculation, the microtiter plates are incubated at 37 °C, 5% CO 2, 95% air and 100% relative humidity for 24 h prior to addition of the experimental drugs.
After 24 h, two plates of each cell line are fixed in situ with TCA, to represent a measurement of the cell population for each cell line at the time of drug addition (Tz). The experimental drugs are solubilized in dimethyl sulfoxide at 400-fold the desired final maximum test concentration and stored frozen prior to use. At the time of drug addition, an aliquot of frozen concentrate is thawed and diluted to twice the desired final maximum test concentration with complete medium containing 50 µg/mL gentamicin. Additional four, 10-fold or ½ log serial dilutions are made to provide a total of five drug concentrations plus control.
Aliquots of […] of these different drug dilutions are added to the appropriate microtiter wells already containing […] of medium, resulting in the required final drug concentrations.
Following drug addition, the plates are incubated for an additional 48 h at 37 °C, 5% CO 2, 95% air, and 100% relative humidity. For adherent cells, the assay is terminated by the addition of cold TCA.
Cells are fixed in situ by the gentle addition of 50 µL of cold 50% (w/v) TCA (final concentration, 10% TCA) and incubated for 60 min at 4 °C. The supernatant is discarded, and the plates are washed five times with tap water and air dried. Sulforhodamine B (SRB) solution ([…]) at 0.4% (w/v) in 1% acetic acid is added to each well, and plates are incubated for 10 min at room temperature. After staining, unbound dye is removed by washing five times with 1% acetic acid and the plates are air dried. Bound stain is subsequently solubilized with 10 mM trizma base, and the absorbance is read on an automated plate reader at a wavelength of 515 nm. For suspension cells, the methodology is […]
the same except that the assay is terminated by fixing settled cells at the bottom of the wells by gently adding 50 µl of 80% TCA (final concentration, 16% TCA). Using the seven absorbance measurements [time zero, (Tz), control growth, (C), and test growth in the presence of drug at the five concentration levels (Ti)], the percentage growth is calculated at each of the drug concentrations […]
Percentage growth inhibition is calculated as: [(Ti Tz)/(C–Tz)] x 100 for concentrations for which Ti>/=Tz and [(Ti-Tz)/Tz] x 100 for concentrations for which Ti < Tz.
Three dose response parameters are calculated for each experimental agent. Growth […]
concentration resulting in a 50% reduction in the net protein increase (as measured by SRB staining) in control cells during the drug incubation. The drug concentration resulting in total growth inhibition (TGI) is calculated from Ti = Tz. […]
reduction in the measured protein at the end of the drug treatment as compared to that at the beginning) indicating a net loss of cells following treatment is calculated from [(Ti–Tz)/Tz] x 100 =
_50. Values are calculated for each of these three parameters if the level of activity is reached; […]

Row | Molecule | GI% (COLO 205) | GI% (DU-145) | GI% (HCC-2998) | GI% (HCT-15) | GI% (HOP-92) | inhibition at 10 µM (COLO 205) [%] | inhibition at 10 µM (DU-145) [%] | inhibition at 10 µM (HCC-2998) [%] | inhibition at 10 µM (HCT-15) [%] | inhibition at 10 µM (HOP-92) [%] | inhibition at 10 µM (K-562) [%] | inhibition at 10 µM (LOX IMVIL) [%] | inhibition at 10 µM (NCI-H460) [%] | inhibition at 10 µM (NCI-H522) [%] | inhibition at 10 µM (OVCAR-4) [%] | inhibition at 10 µM (SNB-19) [%] | inhibition at 10 µM (SW-620) [%] | inhibition at 10 µM (TK-10) [%] | inhibition at 10 µM (U251) [%] | inhibition at 10 µM [1] [%] | further results
1 | 2-(4-((2-(2-(5,6-Dichloro-2-(4-methoxyphenyl)-1H-benzo[d]imidazol-1-yl)acetyl)hydrazono)methyl) -2-methoxyphenoxy)acetic acid [Compound 10m] | – (GI% < 5%) | – (GI% < 5%) | – (GI% < 5%) | – (GI% < 5%) | – (GI% < 5%) |  |  |  |  |  |  |  |  |  |  |  |  |  |  |  | GI% (K-562): – (GI% < 5%); GI% (LOX IMVIL): – (GI% < 5%); GI% (NCI-H460): – (GI% < 5%); GI% (NCI-H522): 6.07%; GI% (OVCAR-4): – (GI% < 5%); GI% (SNB-19): – (GI% < 5%); GI% (SW-620): – (GI% < 5%); GI% (TK-10): – (GI% < 5%); GI% (U251): – (GI% < 5%)
2 | 2-(5-((2-(2-(5,6-Dichloro-2-(4-methoxyphenyl)-1H-benzo[d]imidazol-1-yl)acetyl)hydrazono)methyl)-2-methoxyphenoxy)acetic acid [Compound 10n] | – (GI% < 5%) | – (GI% < 5%) | – (GI% < 5%) | – (GI% < 5%) | – (GI% < 5%) |  |  |  |  |  |  |  |  |  |  |  |  |  |  |  | GI% (K-562): – (GI% < 5%); GI% (LOX IMVIL): 10.35%; GI% (NCI-H460): – (GI% < 5%); GI% (NCI-H522): 8.04%; GI% (OVCAR-4): – (GI% < 5%); GI% (SNB-19): – (GI% < 5%); GI% (SW-620): – (GI% < 5%); GI% (TK-10): – (GI% < 5%); GI% (U251): – (GI% < 5%)
3 | 3-(4-((2-(2-(5,6-Dichloro-2-(4-methoxyphenyl)-1H-benzo[d]imidazol-1-yl)acetyl)hydrazono)methyl)phenoxy)propanoic acid [Compound 10i] | – (GI% < 5%) | – (GI% < 5%) | – (GI% < 5%) | 21.36% | 6.61% |  |  |  |  |  |  |  |  |  |  |  |  |  |  |  | GI% (K-562): 10.25%; GI% (LOX IMVIL): 10.92%; GI% (NCI-H460): – (GI% < 5%); GI% (NCI-H522): 10.42%; GI% (OVCAR-4): – (GI% < 5%); GI% (SNB-19): 5.79%; GI% (SW-620): – (GI% < 5%); GI% (TK-10): – (GI% < 5%); GI% (U251): 7.22%
4 | COc1ccc(-c2nc3cc(Cl)c(Cl)cc3n2CC(=O)NN=Cc2cccc(O)c2)cc1 [Compound 10a, 2-(5,6-Dichloro-2-(4-methoxyphenyl)-1H-benzo[d]imidazol-1-yl)-N'-(3-hydroxybenzylidene)acetohydrazide] |  |  |  |  |  | 46 | 44.2 | 35.9 | 60 | 23.8 | 66 | 29 | 46.8 | 30 | 68.1 | 50.4 | 31.7 | 37.2 | 39.3 | 46.9 | 
5 | COc1ccc(-c2nc3cc(Cl)c(Cl)cc3n2CC(=O)NN=Cc2ccc(O)cc2)cc1 [Compound 10b, 2-(5,6-Dichloro-2-(4-methoxyphenyl)-1H-benzo[d]imidazol-1-yl)-N'-(4-hydroxybenzylidene)acetohydrazide] |  |  |  |  |  | 9.38 | 30.8 | 21.4 | 52.3 | 40 | 47.5 | 42.6 | 49.7 | 21.8 | 52.8 | 39 | 18.6 | 13.9 | 42.8 | 38.5 | 
6 | COc1ccc(-c2nc3cc(Cl)c(Cl)cc3n2CC(=O)NN=Cc2cccc(OC)c2)cc1 [Compound 10c, 2-(5,6-Dichloro-2-(4-methoxyphenyl)-1H-benzo[d]imidazol-1-yl)-N'-(3-methoxybenzylidene)acetohydrazide] |  |  |  |  |  | 8.17 | 23.3 | 7.72 | 44.2 | 20.6 | 46.5 | 30.3 | 23.7 | 15.1 | 42.1 | 32.4 | 10.2 | 5.88 | 26.6 | 28.1 | 
7 | COc1ccc(C=NNC(=O)Cn2c(-c3ccc(OC)cc3)nc3cc(Cl)c(Cl)cc32)cc1 [Compound 10d, 2-(5,6-Dichloro-2-(4-methoxyphenyl)-1H-benzo[d]imidazol-1-yl)-N'-(4-methoxybenzylidene)acetohydrazide] |  |  |  |  |  | 42.7 | 41.2 | 34.9 | 62.9 | 10.9 | 58.7 | 24.7 | 47.2 | 27.9 | 65 | 50.5 | 32.3 | 34.9 | 38.6 | 44.6 | 
